Test results from patent US11534504B2, “Compositions and methods for stabilizing coelenterazine and analogs and derivatives thereof” (Promega Corporation, priority 2018, dated 2022).

Assays:
[1] = Analytical HPLC of Pluronic F-127 formulated substrates reconstituted in water (Examples 34-36); type: physicochemical
Protocol: 2.5 mgs of Pluronic® F-127 (Sigma Aldrich) were massed out into […] snap-top Eppendorf tubes. The polymer was heated to 70° C. in a water bath until melted, becoming a clear solution. […] 5 μL of this stock was added to the melted polymer and pipetted to mix. […] Condition 2—After addition of substrate, the substrate/polymer solution was further diluted with 45 μL of water, frozen, and lyophilized overnight.
Samples from both conditions 1 and 2 were reconstituted in water, diluted to 100 μM, and analyzed for chemical integrity via analytical HPLC (FIG. 54).
This formulation was also prepared for the coelenterazine analog, furimazine. 2.5 mgs of Pluronic® F-127(Sigma Aldrich) were massed out into 1.5 mL, snap-top Eppendorf tubes. The polymer was heated to 70° C. in a water bath until melted. A 10 mM stock solution of furimazine was prepared in EtOH. 5 μL of this stock was then added to the melted polymer and pipetted to mix. […] Condition 2—After addition of substrate, the substrate/polymer solution was further diluted with 45 μL of water, frozen, and then lyophilized overnight.
25 mgs of Pluronic® F-127 were massed out into a 1.5 mL, snap-top Eppendorf tube. The polymer was heated to 70° C. in a water bath until melted. […] An additional 50 μL of EtOH was used to wash and aid transfer of the substrate into the polymer solution. The solvent was removed under reduced pressure without heat.
After lyophilization, each sample was reconstituted with either 500 μL, 400 μL, 250 μL, or 100 μL water, respectively.

[2] = Absorbance of reconstituted furimazine compositions (Example 2); type: physicochemical
Protocol: Bulk solid furimazine was diluted in ethanol to a final concentration of 10 mM (solution 1). […] After mixing, vials containing solutions 3a-e were placed in dry ice to freeze for 1 hour. These frozen stocks where then lyophilized overnight for form dry pullulan matrices containing furimazine. […] Absorbance spectra of the formulated dry furimazine (50 nmols) with increasing amounts of pullulan after reconstitution in the PBS buffer are shown in FIG. 4A. Formulated furimazine with pullulan led to an increase in furimazine absorbance in aqueous solution. Concentration of furimazine was determined by Beer's law using the extinction coefficient of furimazine in methanol (21000 M^−1cm^−1) with absorbance measured at 254 nm. […] Absorbance of the formulated furimazine (95 μg) with increasing amounts of pullulan after reconstitution in the PBS buffer are shown in FIG. 4B. The solid furimazine formulated with increasing concentrations of pullulan matrix led to an increased in absorbance, and thus furimazine concentration in PBS buffer, compared to the conditions that contained only furimazine without pullulan.

[3] = target: T1, cell culture expressing NanoLuc® enzyme (Oplophorus gracilirostris, UniProt Q9GV45, A31E/A60N/A81I/F95D/I117V/K70R/L54V/L99Q/M102K/N193R/P142E/Q151K/Q38R/Q45L/V71I/Y165I); test: Luminescence intensity of Nano-Glo substrate formulations with cell culture expressing NanoLuc (Examples 30-33); type: cell-based; settings: Example 32; 100 mM HP-β-CD
T1 construct: expressed in transfected cells
T1 sequence (Q9GV45 28-196 with tags or gaps with the stated changes limits assumed): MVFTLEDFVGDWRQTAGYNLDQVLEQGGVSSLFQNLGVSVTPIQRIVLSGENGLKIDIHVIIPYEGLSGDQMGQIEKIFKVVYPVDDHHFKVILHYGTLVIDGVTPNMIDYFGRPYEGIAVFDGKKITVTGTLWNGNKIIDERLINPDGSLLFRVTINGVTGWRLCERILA
Protocol: One volume of Nano-Glo® Luciferase Assay Substrate (Promega Cat. #N113) was combined with 50 volumes of Nano-Glo® Luciferase Assay Buffer (Promega Cat. #N112) containing sodium ascorbate at concentrations ranging from 0 to 300 mM. The solutions were incubated at 37° C. prior to assay at several time points. Nano-Glo® Luciferase Assay Substrate used according to manufacturer's instructions (stored at −20° C. during the course of the experiment and reconstituted for each time point) was used as a positive control. A cell culture expressing NanoLuc® enzyme was used as a sample for each time point. One volume of reconstituted Nano-Glo® Luciferase Assay Buffer was mixed with one volume of sample. After 3 minutes, the luminescence intensity was measured with a Bio-Tek Synergy® H1 96-well plate reader. For each sample, the luminescence intensity was background subtracted and normalized to the −20° C. control signal.
A 4× furimazine solution was prepared by diluting the stock 1:25 in a buffer containing 200 mM MES pH 6.0, 200 mM hydroxypropyl-β-cyclodextrin (HP-β-CD), and 600 mM sodium ascorbate. The solution was lyophilized for 48 hours using a Virtis Advantage Pro® Lyophilizer. […] After 3 min, the luminescence intensity was measured with a Bio-Tek Synergy H1 96-well plate reader. […] For each sample, the luminescence intensity was background subtracted and normalized to the −20° C. control signal. […]

O=c1c(Cc2ccco2)nc2c(Cc3ccccc3)[nH]c(-c3cccc(O)c3)cn1-2 [JRW-0238, 8-benzyl-2-(furan-2-ylmethyl)-6-(3-hydroxyphenyl)imidazo[1,2-a]pyrazin-3(7H)-one]
Area Percent, peak at retention time 6.969-6.985 min ([1]; Example 34): 1.571%

O=c1c(Cc2ccco2)nc2c(Cc3ccccc3)[nH]c(-c3ccccc3)cn1-2 [furimazine, 8-benzyl-2-(furan-2-ylmethyl)-6-phenylimidazo[1,2-a]pyrazin-3(7H)-one]
absorbance at 254 nm ([2]; 19.08 μg furimazine in 0.5 mL PBS pH 6.8, 30 minutes at room temperature): 0.0571 | calculated concentration of furimazine in solution ([2]; Beer's law from absorbance at 254 nm, 19.08 μg in 0.5 mL PBS pH 6.8): 0.0082 mM | Area Percent, peak at retention time 6.104-6.109 min ([1]; Example 35): 0.705% | Area Percent, peak at retention time 6.541-6.548 min ([1]; Example 35): 1.407% | Area Percent, peak at retention time 7.949-7.957 min ([1]; Example 35): 1.030% | Area Percent, peak at retention time 5.028-5.038 min (main peak) ([1]; Example 35, furimazine, 100 μM): 96.858%

hydroxypropyl-β-cyclodextrin [HP-β-CD]
signal enhancement compared to Nano-Glo buffer alone [3]: 15 to 20%
